Assay results taken from patent US7410993B2, “3,6-disubstituted azabicyclo [3.1.0] hexane deriviatives useful as muscarinic receptor antagonists” (Ranbaxy Laboratories Limited, priority 2002, dated 2008).

Biological target: T1, M2 muscarinic receptor (Rattus norvegicus, UniProt P10980)
T1 construct: Submandibular glands and heart were isolated and placed in ice cold homogenizing buffer; from tissue; host or cells: rat heart membrane homogenate
T1 sequence (P10980 1-466): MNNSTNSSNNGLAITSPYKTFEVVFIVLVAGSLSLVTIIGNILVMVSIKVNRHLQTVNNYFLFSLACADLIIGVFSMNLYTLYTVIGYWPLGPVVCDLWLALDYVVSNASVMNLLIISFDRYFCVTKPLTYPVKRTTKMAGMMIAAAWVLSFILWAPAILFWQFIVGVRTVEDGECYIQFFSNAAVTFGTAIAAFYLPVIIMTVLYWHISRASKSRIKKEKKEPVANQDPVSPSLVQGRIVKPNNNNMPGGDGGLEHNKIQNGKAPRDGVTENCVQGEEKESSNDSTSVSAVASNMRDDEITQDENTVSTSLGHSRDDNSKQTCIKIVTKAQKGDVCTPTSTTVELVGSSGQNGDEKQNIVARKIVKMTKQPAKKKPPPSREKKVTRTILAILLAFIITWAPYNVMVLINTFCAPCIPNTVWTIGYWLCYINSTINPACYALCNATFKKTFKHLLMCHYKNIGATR
Test: Radioligand binding assay, [3H]-N-methylscopolamine, rat heart membranes
Conditions: [3H]NMS binding

Ki	Structure (SMILES)
34 nM	Cc1ccc(O)c(C(CCN2CC3CC3C2C)c2ccccc2)c1 (single isomer, unassigned) [Compound No. 8, 1-(2-methyl-3-azabicyclo[3.1.0]hex-3-yl)-3-(2-hydroxy-5-methylphenyl)-3-phenyl propane]
42 nM	Cc1ccc(O)c(C(CCN2CC3CC3C2C)c2ccccc2)c1 (single isomer, unassigned) [Compound No. 9, 1-(2-methyl-3-azabicyclo[3.1.0]hex-3-yl)-3-(2-hydroxy-5-methylphenyl)-3-phenyl propane]
105 nM	Cc1ccc(O)c(C(CCN2CC3CC3C2)c2ccccc2)c1 (stereo not drawn) [Compound No. 2, 1-(3-azabicyclo[3.1.0]hex-3-yl)-3-(2-hydroxy-5-methylphenyl)-3-phenyl propane]
> 10000 nM	Cc1ccc(OCc2ccccc2)c(C(CCN2CC3(C)CC3(C)C2)c2ccccc2)c1 (stereo not drawn) [Compound No. 3, 1-(1,5-dimethyl-3-azabicyclo[3.1.0]hex-3-yl)-3-(2-benzyloxy-5-methylphenyl)-3-phenyl propane]
> 1000 nM	Cc1ccc(O)c(C(CCN2CC3(C)CC3(C)C2)c2ccccc2)c1 (stereo not drawn) [Compound No. 4, 1-(1,5-dimethyl-3-azabicyclo[3.1.0]hex-3-yl)-3-(2-hydroxy-5-methylphenyl)-3-phenyl propane]
221 nM	Cc1ccc(O)c(C(CCN2CC3CC3(C)C2)c2ccccc2)c1 (stereo not drawn) [Compound No. 6, 1-(1-methyl-3-azabicyclo[3.1.0]hex-3-yl)-3-(2-hydroxy-5-methylphenyl)-3-phenyl propane]
